Experimental data: article PMC10819771 (Pharmaceuticals, 2023)
Read-outs that look alike come from different tables or passages of the source.

Columns and labels:
FK-RAST = assay: FRET-melting, FK-RAST; type: binding; details: ligand 2 μM, DNA 0.2 μM, 10 mM KCl, 90 mM LiCl, pH 7.2
Experimental: (§1) FRET-melting experiments were conducted on a Stratagene MX3005P (Thermo Fisher Scientific, Illkirch-Graffenstaden, France) real-time PCR equipment in 96-well plates on the DNA sequences reported in Table 4. Experiments were performed in 10 mM lithium cacodylate buffer (pH 7.2) and either 10 mM KCl and 90 mM LiCl (FK-RAST, FBCL-2T, F21T, and FdxT) or 1 mM KCl and 99 mM LiCl (Fc-MYCT) concentrations, depending on the Tm of the G4s alone. The DNA concentration was 0.2 µM. […] Data are presented as an average of three independent measurements, each conducted in duplicate conditions (λexc = 492 nm, λem = 516 nm, T interval = 25–95 °C, ramp: 25 °C for 5 min, then 1 °C/min, measurements every 1 °C, 8× magnification of the fluorescence signal).

FdxT = assay: FRET-melting, duplex control FdxT; type: binding; details: ligand 2 μM, DNA 0.2 μM, 10 mM KCl, 90 mM LiCl, pH 7.2, hairpin duplex
Experimental: as §1

[1] = system: FK-RAST (DNA, G4) AGGGCGGTGTGGGAAGAGGGA; assay: FRET melting; details: 10 mM K+, 90 mM Li+; 10 mM lithium cacodylate pH 7.2; 0.2 µM DNA, 2 µM compound
[2] = system: F21T (DNA, G4) GGGTTAGGGTTAGGGTTAGGG; assay: FRET melting; details: 10 mM K+, 90 mM Li+; 10 mM lithium cacodylate pH 7.2; 0.2 µM DNA, 2 µM compound
HeLa = assay: MTT antiproliferative assay, HeLa; type: cell-based, human; details: Homo sapiens, HeLa; MTT, 72 h, cervical cancer cells; read-out: IC50 Values (μM) ± SEM HeLa
Experimental: (§2) The growth-inhibitory effects of the compounds were determined by MTT (3-(4,5-dimethylthiazol-2-yl)-2,5-diphenyltetrazolium bromide) assay on selected cell lines, including HeLa and SiHa (cervical cancers), MDA-MB-231 and MCF-7 (breast cancers), and A2780 ovarian cancer cells. All cell lines were purchased from the European Collection of Cell Cultures (Salisbury, UK) except SiHa, which was obtained from the American Tissue Culture Collection (Manassas, VA, USA). The cells were kept in minimum essential medium supplemented with 10% fetal bovine serum, 1% non-essential amino acids, and 1% penicillin-streptomycin-amphotericin-B at 37 °C in a humidified atmosphere containing 5% CO2. Media and supplements were obtained from Lonza Group Ltd., (Basel, Switzerland). Cancer cells were seeded onto 96-well plates (5000 cells/well), after an overnight incubation the test compounds were added in six concentrations (0.1, 0.3, 1.0, 3.0, 10.0, 30.0 µM) and incubated for 72 h under cell-culture condition. After the incubation, 20 μL of 5 mg/mL MTT solution was added to each well and incubated for a further 4 h. The medium was removed, and the precipitated formazan crystals were dissolved in DMSO for 30 min under shaking at 37 °C. The absorbance was measured at 545 nm with a microplate reader. Untreated cells were included as controls. Calculations were performed by means of the GraphPad Prism 5.01 software (GraphPad Software Inc., San Diego, CA, USA). At least two independent determinations were performed with 5 parallel wells for each condition.

[3] = system: human telomeric sequence F21T; assay: FRET-melting, F21T; type: binding; details: ligand 2 μM, DNA 0.2 μM, 10 mM KCl, 90 mM LiCl, pH 7.2
Experimental: as §1

SiHa = assay: MTT antiproliferative assay, SiHa; type: cell-based, human; details: Homo sapiens, SiHa; MTT, 72 h, cervical cancer cells; read-out: IC50 Values (μM) ± SEM SiHa
Experimental: as §2

A2780 = assay: MTT antiproliferative assay, A2780; type: cell-based, human; details: Homo sapiens, A2780; MTT, 72 h, ovarian cancer cells; read-out: IC50 Values (μM) ± SEM A2780
Experimental: as §2

MDA-MB-231 = assay: MTT antiproliferative assay, MDA-MB-231; type: cell-based, human; details: MTT, 72 h, breast cancer cells, read-out: IC50 Values (μM) ± SEM MDA-MB-231
Experimental: as §2

K562 = assay: MTS cell proliferation assay, K562; type: cell-based, human; details: Homo sapiens, K562, 72 h; MTS, 3-day incubation, leukemia cells; read-out: IC50 Values (μM) ± SEM K562
Experimental: The human leukemic cell line K562 was grown in RPMI 1640 medium (Life Technology-Invitrogen by Thermo Fisher Scientific, Saint-Aubin, France) supplemented with 10% fetal calf serum (FCS), antibiotics (100 U/mL penicillin, 100 µg/mL streptomycin), and L-glutamine, (Eurobio, Les Ulis, France) at 37 °C, 5% CO2 in air. The MTS cell proliferation assay (Promega, Charbonnières-les-Bains, France) is a colorimetric assay system, which measures the transformation of a tetrazolium component (MTS) into formazan produced by the mitochondria of viable cells. Cells were washed twice in PBS (Phosphate Buffer Saline) and plated in quadruplicate into microtiter-plate wells in 100 μL culture media with or without our various compounds at increasing concentrations (0, 1, 5, 10, 20, and 50 μM) for 1, 2, and 3 days. After 3 h of incubation at 37 °C with 20 μL MTS/well, the plates were read using an ELISA microplate reader (Thermo, Electrocorporation, Waltham, MA, USA) at 490 nm. The amount of color produced was directly proportional to the number of viable cells. The results are expressed as the concentrations inhibiting cell growth by 50% after a 3-day incubation period. The 50% cytotoxic concentrations (CC50) were determined by linear regression analysis, expressed in μM ± SD (Microsoft Excel).

FBCL-2T = assay: FRET-melting, FBCL-2T; type: binding; details: ligand 2 μM, DNA 0.2 μM, 10 mM KCl, 90 mM LiCl, pH 7.2
Experimental: as §1

MCF-7 = assay: MTT antiproliferative assay, MCF-7; type: cell-based, human; details: MTT, 72 h, breast cancer cells, read-out: IC50 Values (μM) ± SEM MCF-7
Experimental: as §2

Fc-MYCT = assay: FRET-melting, Fc-MYCT; type: binding; details: ligand 2 μM, DNA 0.2 μM, K+ conditions, pH 7.2
Experimental: as §1

[4] = system: Fc-MYCT (DNA, G4) GGGTGGGTAGGGTGGGTAA; assay: FRET melting; details: 1 mM K+, 99 mM Li+ (table footnote says 10 mM KCl, 90 mM LiCl); 10 mM lithium cacodylate pH 7.2; 0.2 µM DNA, 2 µM compound

For `CN(C)CCCNCc1ccc(-c2nc(-c3ccc(CNCCCN(C)C)cc3)c3c(-c4ccccc4)cccc3n2)cc1` [Compound 12a, 2,4-bis{4-[(3-dimethylaminopropyl)aminomethyl]phenyl}-5-phenylquinazoline], the “ΔT1/2 (°C) FK-RAST” value (FK-RAST) was 10.6 ± 0.6 °C, the “ΔT1/2 (°C) FdxT” value (FdxT) was 0.9 ± 0.2 °C and the ΔT1/2 [1] was 10.6 ± 0.6 °C. For the same compound, the ΔT1/2 [2] was 6.8 ± 0.8 °C, the IC50 (HeLa) was 1.36 ± 0.04 µM and the “ΔT1/2 (°C) F21T” value [3] was 6.8 ± 0.8 °C. The IC50 (SiHa) was 0.62 ± 0.12 µM, the IC50 (A2780) was 2.6 ± 0.03 µM and the IC50 (MDA-MB-231; Homo sapiens, MDA-MB-231, 72 h) was 1.45 µM. The IC50 (MDA-MB-231) was 1.45 ± 0.14 µM, the IC50 (K562) was 14 ± 0.2 µM and the “ΔT1/2 (°C) FBCL-2T” value (FBCL-2T) was 7.4 ± 0.9 °C. For the same compound, the IC50 (MCF-7; Homo sapiens, MCF7, 72 h) was 1.12 to 1.24 µM, the IC50 (MCF-7) was 1.12 ± 0.13 µM and the “ΔT1/2 (°C) Fc-MYCT” value (Fc-MYCT) was 9.3 ± 0.3 °C.
`CN(C)CCCNCc1ccc(-c2cc(-c3ccc(CNCCCN(C)C)cc3)c3cccc(-c4ccccc4)c3n2)cc1` [Compound 13e, 2,4-bis{4-[(3-dimethylaminopropyl)aminomethyl]phenyl}-8-phenylquinoline] was tested, and the “ΔT1/2 (°C) FK-RAST” value (FK-RAST) was 11.6 ± 1.4 °C, the “ΔT1/2 (°C) FdxT” value (FdxT) was 0.2 ± 0.1 °C and the IC50 (HeLa) was 1.28 ± 0.21 µM. The “ΔT1/2 (°C) F21T” value [3] was 15.9 ± 0.4 °C, the ΔT1/2 [4] was 5.5 ± 0.9 °C and the IC50 (SiHa) was 1.07 ± 0.45 µM. The IC50 (A2780) was 1.5 ± 0.34 µM, the IC50 (MDA-MB-231; Homo sapiens, MDA-MB-231, 72 h) was 1.21 ± 0.03 µM and the IC50 (K562) was 7 ± 0.1 µM. The “ΔT1/2 (°C) FBCL-2T” value (FBCL-2T) was 8.3 ± 0.1 °C, the IC50 (MCF-7; Homo sapiens, MCF7, 72 h) was 1.12 ± 0.1 µM and the “ΔT1/2 (°C) Fc-MYCT” value (Fc-MYCT) was 5.5 ± 0.9 °C.
